Test results taken from ChEMBL document CHEMBL1201862, “PubChem BioAssay data set” (2004).
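Protocol summary: plate cells (96-well), add compound at 5 concentrations, incubate 48 h, interpolate endpoints linearly. The concentration for 50% growth inhibition is given as GI50.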 The source made the active and inactive calls. Cut-off read from the data, not from the text of the source: active = GI50 up to about 1.1 µM and inactive = higher.

Columns and labels:
Test in all cases: growth of human tumour cells (NCI), 48 h
SNB-78 = tested on: SNB-78
KM-20L2 = tested on: KM-20L2
DLD-1 = tested on: DLD-1
DMS-273 = tested on: DMS-273
DMS-114 = tested on: DMS-114
M19-MEL = tested on: M19-MEL
RXF 631 = tested on: RXF 631
XF498 = tested on: XF498
HOP-18 = tested on: HOP-18

SMILES	GI50 (SNB-78)	GI50 (KM-20L2)	GI50 (DLD-1)	GI50 (DMS-273)	GI50 (DMS-114)	GI50 (M19-MEL)	GI50 (RXF 631)	GI50 (XF498)	GI50 (HOP-18)
Nc1nc(N)c(N=O)c(Nc2ccc(I)cc2)n1	18.2 µM (inactive)	23.2 µM (inactive)	10 µM (inactive)	16.5 µM (inactive)	20.7 µM (inactive)	29.4 µM (inactive)	–	–	–
COC(=O)C(=O)C(C#N)c1ccc(Cl)c(Cl)c1 (stereo not drawn)	> 100 µM (inactive)	> 100 µM (inactive)	> 100 µM (inactive)	> 100 µM (inactive)	–	> 100 µM (inactive)	> 100 µM (inactive)	> 100 µM (inactive)	–
Cc1ccc(NC(=O)c2nc(S)nc(N)c2-c2ccccc2C)cc1C	> 100 µM (inactive)	> 100 µM (inactive)	> 100 µM (inactive)	> 100 µM (inactive)	> 100 µM (inactive)	> 100 µM (inactive)	–	> 100 µM (inactive)	> 100 µM (inactive)
Cn1c(=O)c(C2c3ccccc3Oc3c2c(=O)n(C)c2ccccc32)c(O)c2ccccc21 (stereo not drawn)	53.3 µM (inactive)	59 µM (inactive)	50.9 µM (inactive)	68.7 µM (inactive)	49.1 µM (inactive)	> 100 µM (inactive)	58.2 µM (inactive)	26.9 µM (inactive)	> 100 µM (inactive)
CC1CCC23COC(=O)C2C(O)CCC3C1(C)CC(O)c1ccoc1 (stereo not drawn)	> 100 µM (inactive)	> 100 µM (inactive)	> 100 µM (inactive)	–	> 100 µM (inactive)	> 100 µM (inactive)	–	> 100 µM (inactive)	> 100 µM (inactive)
N#CC1([N+](=O)[O-])C=C1c1ccccc1 (stereo not drawn)	81.5 µM (inactive)	> 100 µM (inactive)	8.81 µM (inactive)	> 100 µM (inactive)	48.6 µM (inactive)	56.1 µM (inactive)	> 100 µM (inactive)	–	–
Cc1nc(=O)n2c(C)n[nH]c2c1C(=O)Nc1cc(Cl)cc(Cl)c1	32.4 µM (inactive)	–	19.1 µM (inactive)	–	–	27.3 µM (inactive)	–	–	–
COc1cccc2c1C(=O)c1c(O)c3c(c(O)c1C2=O)C[C@@](O)(C(=O)CO)CC3OC1CC(N(C)CCOCC(OC(C)=O)OC(C)=O)C(O)C(C)O1 (stereo partly drawn)	–	> 0.01 µM (active)	> 0.01 µM (active)	–	> 0.01 µM (active)	> 0.01 µM (active)	–	> 0.01 µM (active)	> 0.01 µM (active)
O=C(CC(=O)N1N=C(n2ccc3ccccc32)CC1c1ccccc1)Nc1ccc(Cl)cc1 (stereo not drawn)	> 100 µM (inactive)	> 100 µM (inactive)	> 100 µM (inactive)	> 100 µM (inactive)	> 100 µM (inactive)	> 100 µM (inactive)	> 100 µM (inactive)	–	> 100 µM (inactive)
O=C1c2ccccc2C(=O)c2c(NCCCNCCO)ccc(NCCCNCCO)c21	8.32 µM (inactive)	5.51 µM (inactive)	–	–	6.01 µM (inactive)	4.93 µM (inactive)	17.8 µM (inactive)	4.67 µM (inactive)	5.01 µM (inactive)
c1ccc2c(c1)CCc1c(-c3ccncc3)n[nH]c1-2	29.6 µM (inactive)	23.6 µM (inactive)	41.9 µM (inactive)	22.9 µM (inactive)	17.2 µM (inactive)	21.4 µM (inactive)	> 10 µM (inactive)	0.583 µM (active)	–
CCCCCCCCCc1cc(=O)c2ccc(OCc3ccccc3)cc2o1	> 100 µM (inactive)	> 100 µM (inactive)	> 100 µM (inactive)	> 100 µM (inactive)	92.9 µM (inactive)	69.7 µM (inactive)	–	> 100 µM (inactive)	> 100 µM (inactive)
NC(CCSCC(F)(F)F)C(=O)O (stereo not drawn)	> 100 µM (inactive)	> 100 µM (inactive)	> 100 µM (inactive)	> 100 µM (inactive)	> 100 µM (inactive)	> 100 µM (inactive)	–	–	> 100 µM (inactive)
O=C(CC(=O)c1ccccc1)C(=O)Nc1ccc(Cl)cc1	> 100 µM (inactive)	> 100 µM (inactive)	> 58.9 µM (inactive)	> 56.5 µM (inactive)	> 40.4 µM (inactive)	–	–	> 100 µM (inactive)	> 100 µM (inactive)
O=C(/C=C/c1ccccc1F)c1ccc(Cl)c(Cl)c1	> 69.3 µM (inactive)	36.3 µM (inactive)	23.9 µM (inactive)	35.1 µM (inactive)	24 µM (inactive)	24 µM (inactive)	> 53.7 µM (inactive)	28.5 µM (inactive)	16.4 µM (inactive)
OCCC1(O)CCC(O)CC1 (stereo not drawn)	> 100 µM (inactive)	–	> 100 µM (inactive)	> 100 µM (inactive)	> 100 µM (inactive)	> 100 µM (inactive)	–	–	> 100 µM (inactive)
Cc1cccc(C)c1NC(=O)C(C#N)C1=C(Cl)C(=O)c2ccccc2C1=O (stereo not drawn)	23.4 µM (inactive)	24.1 µM (inactive)	8.15 µM (inactive)	30.5 µM (inactive)	15.3 µM (inactive)	4.55 µM (inactive)	15.4 µM (inactive)	15.5 µM (inactive)	12.7 µM (inactive)
O=C1C(O)=C(CCCc2ccc(Oc3ccccc3)cc2)C(=O)c2ccccc21	28.1 µM (inactive)	31.3 µM (inactive)	10.4 µM (inactive)	3.89 µM (inactive)	4.73 µM (inactive)	7.13 µM (inactive)	–	9.02 µM (inactive)	–
COc1cc2cc3c4c(cc(OC)c(OC)c4c2cc1OC)CCN3C(=O)N(C)C	> 100 µM (inactive)	58.2 µM (inactive)	> 100 µM (inactive)	89.1 µM (inactive)	> 100 µM (inactive)	> 100 µM (inactive)	–	–	–
CCN(CC)CCNc1ccc2nc(C)n3c4ccc(OC)cc4c(=O)c1c23	–	–	0.463 µM (active)	0.695 µM (active)	2.58 µM (inactive)	6.59 µM (inactive)	–	–	–
CC(O)(c1ccc(OCCC[N+](C)(C)C)cc1)C(C)(O)c1ccc(OCCC[N+](C)(C)C)cc1 (stereo not drawn)	> 100 µM (inactive)	> 100 µM (inactive)	> 100 µM (inactive)	> 100 µM (inactive)	> 100 µM (inactive)	–	–	–	> 100 µM (inactive)
CC(C)(C)c1cc(CCC(=O)Nc2ccc(Cl)cc2Cl)nc(N)n1	> 100 µM (inactive)	> 100 µM (inactive)	> 100 µM (inactive)	–	> 100 µM (inactive)	> 100 µM (inactive)	> 100 µM (inactive)	–	> 100 µM (inactive)
COc1cc(C2Oc3cc(-c4oc5cc(O)cc(O)c5c(=O)c4O)ccc3OC2CO)ccc1O (stereo not drawn) [DEHYDROSILYLBIN]	> 46.6 µM (inactive)	–	14.5 µM (inactive)	5.85 µM (inactive)	9.86 µM (inactive)	14.4 µM (inactive)	–	10.8 µM (inactive)	–
COc1cc(C2c3cc4c(cc3[C@@H](N(C)C)[C@H]3COC(=O)C23)OCO4)cc(OC)c1O (stereo partly drawn)	–	23.4 µM (inactive)	41.9 µM (inactive)	32.5 µM (inactive)	–	–	42.2 µM (inactive)	45 µM (inactive)	–
